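Interpolation was linear, between the two tested concentrations surrounding the appropriate level; five concentrations were tested over 48 hours in 96-well plates. At the GI50, growth is halved.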 Calls of active or inactive are those of the source. No stated cut-off is given here; in the data, active = GI50 up to about 1.1 µM and inactive = higher.
Columns and labels:
Test in all cases: DTP human tumour cell line panel, 48 h
[1] = tested on: 786-0
[2] = tested on: A498
[3] = tested on: A549
[4] = tested on: ACHN
[5] = tested on: BT-549
[6] = tested on: CAKI-1
[7] = tested on: CCRF-CEM
[8] = tested on: COLO 205
[9] = tested on: DU-145
[10] = tested on: EKVX
[11] = tested on: HCC 2998
[12] = tested on: HCT-116
[13] = tested on: HCT-15
[14] = tested on: HL-60
[15] = tested on: HOP-62
[16] = tested on: HOP-92
[17] = tested on: HT-29
[18] = tested on: Hs-578T
[19] = tested on: IGROV-1
[20] = tested on: K562
[21] = tested on: KM12
[22] = tested on: LOX IMVI
[23] = tested on: M14
[24] = tested on: MCF7
[25] = tested on: MDA-MB-231
[26] = tested on: MDA-MB-435
[27] = tested on: MDA-N
[28] = tested on: MOLT-4
[29] = tested on: Malme-3M
[30] = tested on: NCI-H226
[31] = tested on: NCI-H23
[32] = tested on: NCI-H460
[33] = tested on: NCI-H522
[34] = tested on: NCI/ADR-RES
[35] = tested on: OVCAR-3
[36] = tested on: OVCAR-4
[37] = tested on: OVCAR-5
[38] = tested on: OVCAR-8
[39] = tested on: PC-3
[40] = tested on: RPMI-8226
[41] = tested on: RXF 393
[42] = tested on: SF-268
[43] = tested on: SF-295
[44] = tested on: SF-539
[45] = tested on: SK-MEL-28
[46] = tested on: SK-MEL-2
[47] = tested on: SK-MEL-5
[48] = tested on: SK-OV-3
[49] = tested on: SN12C
[50] = tested on: SNB-19
[51] = tested on: SNB-75
[52] = tested on: SR
[53] = tested on: SW-620
[54] = tested on: T47D
[55] = tested on: TK-10
[56] = tested on: U-251
[57] = tested on: UACC-257
[58] = tested on: UACC-62
[59] = tested on: UO-31

With `CCC(CO)Nc1nc(NCc2ccccc2)c2ncn(C(C)C)c2n1` (stereo not drawn) [(RS)-ROSCOVITINE] the GI50 [1] was 20.2 µM (inactive), the GI50 [2] was 23.9 µM (inactive) and the GI50 [3] was 23.3 µM (inactive). For the same compound, the GI50 [4] was 18.8 µM (inactive), the GI50 [5] was 18.5 µM (inactive) and the GI50 [6] was 17.4 µM (inactive). For the same compound, the GI50 [7] was 22.6 µM (inactive), the GI50 [8] was 15 µM (inactive) and the GI50 [9] was 35.8 µM (inactive). For the same compound, the GI50 [10] was 18.2 µM (inactive), the GI50 [11] was 15.3 µM (inactive) and the GI50 [12] was 8.38 µM (inactive). For the same compound, the GI50 [13] was 17.9 µM, the GI50 [14] was 17.5 µM (inactive) and the GI50 [15] was 11.9 µM (inactive). The GI50 [16] was 17.2 µM (inactive), the GI50 [17] was 18.8 µM (inactive) and the GI50 [18] was 4.58 µM (inactive). For the same compound, the GI50 [19] was 14.8 µM (inactive), the GI50 [20] was 46.6 µM (inactive) and the GI50 [21] was 12.7 µM (inactive). For the same compound, the GI50 [22] was 16.5 µM (inactive), the GI50 [23] was 16.8 µM (inactive) and the GI50 [24] was 15.7 µM (inactive). The GI50 [25] was 25.8 µM (inactive), the GI50 [26] was 23.4 µM (inactive) and the GI50 [27] was 30.3 µM (inactive). The GI50 [28] was 28.5 µM (inactive), the GI50 [29] was 25.7 µM (inactive) and the GI50 [30] was 15 µM (inactive). For the same compound, the GI50 [31] was 13.6 µM (inactive), the GI50 [32] was 16.2 µM (inactive) and the GI50 [33] was 16.5 µM (inactive). The GI50 [34] was 15.4 µM (inactive), the GI50 [35] was 9.23 µM (inactive) and the GI50 [36] was 20.2 µM (inactive). The GI50 [37] was 20.7 µM (inactive), the GI50 [38] was 16.7 µM (inactive) and the GI50 [39] was 17.9 µM (inactive). The GI50 [40] was 22.6 µM (inactive), the GI50 [41] was 7.66 µM (inactive) and the GI50 [42] was 13.7 µM (inactive). The GI50 [43] was 19.3 µM (inactive), the GI50 [44] was 12.6 µM (inactive) and the GI50 [45] was 12.8 µM (inactive). The GI50 [46] was 20.7 µM (inactive), the GI50 [47] was 15.8 µM (inactive) and the GI50 [48] was 57.8 µM (inactive). For the same compound, the GI50 [49] was 32.7 µM (inactive), the GI50 [50] was 34.9 µM (inactive) and the GI50 [51] was 13.8 µM (inactive). The GI50 [52] was 7.1 µM (inactive), the GI50 [53] was 25.2 µM (inactive) and the GI50 [54] was 32.8 µM (inactive). The GI50 [55] was 24.4 µM (inactive), the GI50 [56] was 27.9 µM (inactive) and the GI50 [57] was 30.3 µM (inactive). The GI50 [58] was 12.8 µM (inactive) and the GI50 [59] was 12.4 µM (inactive).

`S=C1Cc2c(-c3ccc(Cl)cc3)cc(-c3ccccc3)nc2-c2ccccc2N1` was tested, and the GI50 [1] was 5.97 µM (inactive), the GI50 [2] was 14.8 µM (inactive) and the GI50 [3] was 8.73 µM (inactive). For the same compound, the GI50 [4] was 7.82 µM (inactive), the GI50 [5] was 16.6 µM (inactive) and the GI50 [6] was 3.95 µM (inactive). For the same compound, the GI50 [7] was 26.2 µM (inactive), the GI50 [8] was 16 µM (inactive) and the GI50 [9] was 22 µM (inactive). The GI50 [10] was 15.6 µM (inactive), the GI50 [11] was 23.9 µM (inactive) and the GI50 [12] was 11 µM (inactive). For the same compound, the GI50 [13] was 21.1 µM, the GI50 [14] was 30.6 µM (inactive) and the GI50 [15] was 6.98 µM (inactive). For the same compound, the GI50 [16] was 8.04 µM (inactive), the GI50 [17] was 5.47 µM (inactive) and the GI50 [18] was 3.56 µM (inactive). The GI50 [19] was 3.83 µM (inactive), the GI50 [20] was > 100 µM (inactive) and the GI50 [21] was 4.85 µM (inactive). The GI50 [22] was 13.9 µM (inactive), the GI50 [23] was 12.8 µM (inactive) and the GI50 [24] was 17.1 µM (inactive). The GI50 [25] was 7.8 µM (inactive), the GI50 [26] was 15 µM (inactive) and the GI50 [27] was 14 µM (inactive). The GI50 [28] was 28.7 µM (inactive), the GI50 [29] was 13.8 µM (inactive) and the GI50 [30] was 13.1 µM (inactive). The GI50 [31] was 11.6 µM (inactive), the GI50 [32] was 13 µM (inactive) and the GI50 [33] was 15.7 µM (inactive). For the same compound, the GI50 [34] was 12.7 µM (inactive), the GI50 [35] was 13 µM (inactive) and the GI50 [36] was 3.08 µM (inactive). For the same compound, the GI50 [37] was 24.5 µM (inactive), the GI50 [38] was 2.86 µM (inactive) and the GI50 [39] was 15.2 µM (inactive). The GI50 [40] was 37.3 µM (inactive), the GI50 [41] was 6.56 µM (inactive) and the GI50 [42] was 14.3 µM (inactive). For the same compound, the GI50 [43] was 14.2 µM (inactive), the GI50 [44] was 4.01 µM (inactive) and the GI50 [45] was 13.8 µM (inactive). For the same compound, the GI50 [46] was 17.7 µM (inactive), the GI50 [47] was 16 µM (inactive) and the GI50 [48] was 10.6 µM (inactive). For the same compound, the GI50 [49] was 13.5 µM (inactive), the GI50 [50] was 4.5 µM (inactive) and the GI50 [51] was 3.76 µM (inactive). The GI50 [52] was > 100 µM (inactive), the GI50 [53] was 19.1 µM (inactive) and the GI50 [54] was 19.8 µM (inactive). For the same compound, the GI50 [55] was 12.3 µM (inactive), the GI50 [56] was 4.03 µM (inactive) and the GI50 [57] was 14.1 µM (inactive). For the same compound, the GI50 [58] was 14.6 µM (inactive) and the GI50 [59] was 14.8 µM (inactive).

Source: ChEMBL document CHEMBL1201862, “PubChem BioAssay data set” (2004)
